Assay results: article PMC4820820, “CETSA screening identifies known and novel thymidylate synthase inhibitors and slow intracellular activation of 5-fluorouracil” (Nature Communications, 2016)

molecular target: T1, human thymidylate synthase (TS) (Homo sapiens, UniProt P04818); experiment: ITDRF CETSA at 50 °C, AlphaScreen detection, live K562 cells; type: cell-based; details: 2 h preincubation, 50 °C for 3 min, read-out: […] EC50 (half-maximal stabilization of TS)
T1 construct: screening in live, non-engineered cells expressing thymidylate synthase; endogenous in cells; host or cells: K562 (human myelogenous leukemia) cells
T1 sequence (P04818 2-313 limits assumed): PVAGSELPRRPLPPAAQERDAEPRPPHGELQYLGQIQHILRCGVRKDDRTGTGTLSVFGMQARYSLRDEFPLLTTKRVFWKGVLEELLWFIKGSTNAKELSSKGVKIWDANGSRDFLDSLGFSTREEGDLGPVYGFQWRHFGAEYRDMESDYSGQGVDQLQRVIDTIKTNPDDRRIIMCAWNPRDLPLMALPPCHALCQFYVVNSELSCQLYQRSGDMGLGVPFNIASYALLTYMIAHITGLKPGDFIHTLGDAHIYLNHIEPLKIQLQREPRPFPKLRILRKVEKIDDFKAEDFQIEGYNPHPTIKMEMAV
Experimental: For the […] experiments 11-point dose-response curves with three-fold difference in concentration between wells were generated using the Bravo liquid handling system (all serial dilutions were done in 100% DMSO). […] The concentration of DMSO was 0.5% in all samples. […] The assay ready plates were prepared as outlined above for the screen.
(§1) The screen procedure started with the addition of 5 μl of a suspension of K562 cells at a density of 10 million cells per ml to all wells of a 384 well hardshell PCR plate (HSR480, BIORAD) using an electronic multichannel pipette (Biohit). […] For the time-course experiments the incubation times were altered to include also 10 min, 30 min and 6 h. […] After the incubation step the plates were transiently heated at 50 °C for 3 min followed by a controlled cooling to 20 °C for 1 min using a real-time PCR machine (LightCycler480 system, Roche). Plate handling was then as described above for the thermal aggregation experiments. The data were analyzed using microsoft excel and GraphPad Prism 6.
(§2) A calculation of the average and standard error of means for each set of controls also allowed an illustration of how these responses varied over the 32 screening plates. The Z′ factor[38] is commonly used as a measure of how well the assay separates between the controls and this was calculated as described based on the calculated averages and standard deviations of the controls on a per plate basis. For the Tagg shift and the […] experiments the data were analyzed in GraphPad Prism using the Boltzmann sigmoid equation and the saturation binding curve (rectangular hyperbola; binding isotherm) function, respectively. As already discussed[14] these methods make use of equilibrium models for data analysis although the methodology depends on the irreversible aggregation of denatured material. For this reason we refer to the observed responses as apparent and isothermal dose-response fingerprints and are careful with any quantitative interpretations, being well aware of their dependency on experimental conditions. Experiments are on-going to address the quantitative interpretation of CETSA data.

EC50 | Structure (SMILES)
47 ± 15 nM | O=c1[nH]c(=O)n([C@@H]2O[C@H](CO)[C@@H](O)[C@H]2O)cc1F [5-fluorouridine]

molecular target: T1, human thymidylate synthase (TS); experiment: CETSA primary screen / single-concentration retest, AlphaScreen, live K562 cells; type: cell-based; details: 50 μM compound, 2 h preincubation, 50 °C; 0% = DMSO, 100% = 100 nM raltitrexed
Experimental: Compounds were placed in columns 1–22. […] At the day of the experiment the plates were allowed to thaw for 30 min followed by a brief centrifugation step (1,000 × g for 1 min) prior to removal of the seal. The compounds were then diluted with 20 μl supplemented cell culture medium using a Multidrop Combi reagent dispenser (Thermo Scientific). Finally 5 μl of the diluted compounds were transferred to a 384 well hardshell PCR plate (HSR480, BIORAD) using a Bravo liquid handling platform equipped with a 384-well head (Agilent). […] The final concentration of DMSO in the assay was 0.5% in all samples.
as §1, §2

% stabilization in screen | Structure (SMILES)
22% | O=c1ncccn1[C@@H]1O[C@H](CO)[C@H](O)C1O (stereo partly drawn) [CBK201195]
17% | O=C(O)/C=C/c1cn([C@H]2C[C@@H](O)[C@@H](CO)O2)c(=O)[nH]c1=O [CBK201174]
7% | Nc1nc(=O)n([C@H]2C[C@@H](O)[C@@H](CO)O2)cc1I [CBK201226]
-2% | Cc1ccc(S(=O)(=O)OC[C@H]2O[C@@H](n3ccc(=O)[nH]c3=O)C[C@H]2O)cc1 [CBK201283]
-1% | Nc1ccn([C@H]2C[C@@H](O)[C@@H](CO)O2)c(=O)n1 [CBK201274]
17% | Cc1cn([C@@H]2O[C@H](CO)[C@H](O)C2O)c(=O)[nH]c1=O (stereo partly drawn) [CBK201265]
-1% | Cc1cn([C@H]2C[C@@H](O)[C@@H](CN)O2)c(=O)[nH]c1=O [CBK201315]
-1% | Cc1cn([C@H]2C[C@@H](O)[C@@H](CO)O2)c(=O)n(CCC#N)c1=O [CBK201322]
16% | O=c1[nH]c(=O)n([C@H]2C[C@@H](O)[C@@H](CO)O2)cc1O [CBK201317]
9% | O=c1nc2c(cn1[C@H]1C[C@@H](O)[C@@H](CO)O1)Sc1ccccc1N2 [CBK201237]
-1% | Cn1c(=O)ccn([C@@H]2O[C@H](CO)[C@H](O)C2O)c1=O (stereo partly drawn) [CBK201281]
17% | O=c1[nH]c(=O)n([C@H]2C[C@@H](O)[C@@H](CO)O2)cc1CCO [CBK201239]
-1% | COC1C(O)C(CO)OC1n1cc(C)c(=O)[nH]c1=O (stereo not drawn) [CBK201251]
-1% | O=c1ccn([C@H]2C[C@@H](O)[C@@H](CO)O2)c(=O)[nH]1 [CBK201316]
-1% | O=C(NC/C=C/c1cn(C2OC(CO)C(O)C2O)c(=O)[nH]c1=O)C(F)(F)F (stereo not drawn) [CBK201298]
-1% | O=c1[nH]c(=O)n([C@@H]2O[C@H](CO)[C@H](O)C2O)cc1Br (stereo partly drawn) [CBK201180]
-1% | Cc1cn(C2CC(O)C(C3N(c4ccccc4)CCN3c3ccccc3)O2)c(=O)[nH]c1=O (stereo not drawn) [CBK201232]
-1% | Nc1nc(=O)n([C@@H]2O[C@H](CO)[C@H](O)C2O)cc1I (stereo partly drawn) [CBK201306]

Further lines, the compound ahead of its results:

Structure (SMILES) | % stabilization in screen
O=C(/C=C/c1cn(C2CC(O)C(CO)O2)c(=O)[nH]c1=O)NCCCCCCNC(=O)C(F)(F)F (stereo not drawn) [CBK201310] | 15%
O=C(O)/C=C/c1cn([C@@H]2O[C@H](CO)[C@H](O)C2O)c(=O)[nH]c1=O (stereo partly drawn) [CBK201270] | -1%
C#CCOc1cn([C@H]2C[C@@H](O)[C@@H](CO)O2)c(=O)[nH]c1=O [CBK201278] | 7%
O=C(/C=C/c1cn(C2CC(O)C(CO)O2)c(=O)[nH]c1=O)NCCNC(=O)C(F)(F)F (stereo not drawn) [CBK201214] | 9%
COC1C(O)C(CO)OC1n1cc(F)c(Oc2c(C)cc(C)cc2C)nc1=O (stereo not drawn) [CBK201279] | 0%
Cc1cn(C2CC(O)C(CNC(=O)C(F)(F)F)O2)c(=O)[nH]c1=O (stereo not drawn) [CBK201200] | 0%
O=C(/C=C/c1cn([C@H]2C[C@@H](O)[C@@H](CO)O2)c(=O)[nH]c1=O)ON1C(=O)CCC1=O [CBK201188] | 16%
Cc1cn(C2CC(O)C(CO)O2)c(=O)[nH]c1=O (stereo not drawn) [CBK011998] | -1%
O=c1[nH]c(=O)n([C@@H]2O[C@H](CO)[C@H](O)C2O)cc1I (stereo partly drawn) [CBK201304] | -1%
Cc1cc2cn([C@H]3C[C@@H](O)[C@@H](CO)O3)c(=O)nc2o1 [CBK201287] | 20%
COC(=O)/C=C/c1cn(C2OC(CO)C(O)C2O)c(=O)[nH]c1=O (stereo not drawn) [CBK201339] | -1%
Cc1cn([C@H]2C[C@@H](O)[C@@H](CO)O2)c(=O)nc1N.Cl [CBK201307] | 4%
CCOc1nc(=O)c(C)cn1C1CC(O)C(CO)O1 (stereo not drawn) [CBK201334] | -1%
O=C(NC/C=C/c1cn(C2CC(O)C(CO)O2)c(=O)[nH]c1=O)C(F)(F)F (stereo not drawn) [CBK201249] | 17%
Cc1cc2cn([C@H]3C[C@@H](O)[C@@H](CO)O3)c(=O)nc2[nH]1 [CBK201302] | 21%
Cc1cn2c(nc1=O)OC[C@H]1O[C@@H]2C[C@H]1O [CBK201280] | 0%
COC1C(O)C(CO)OC1n1cc(F)c(=S)[nH]c1=O (stereo not drawn) [CBK201168] | 2%
Nc1cccc(-c2cn([C@H]3C[C@@H](O)[C@@H](CO)O3)c(=O)[nH]c2=O)c1 [CBK201262] | 16%
CN(C)/C=N/c1nc(=O)n([C@H]2CC(O)[C@@H](CO)O2)cc1/C=C/C(=O)NCCCCCCNC(=O)C(F)(F)F (stereo partly drawn) [CBK201330] | 13%
C[CH2][Hg][S]c1ccccc1C(=O)[O-].[Na+] [CBK200591N, Thimerosal, reference compound] | 115%
O=C(/C=C/c1cn(C2OC(CO)C(O)C2O)c(=O)[nH]c1=O)NCCCCCCNC(=O)C(F)(F)F (stereo not drawn) [CBK201231] | -1%
COC1C(O)C(CO)OC1n1cc(F)c(=O)[nH]c1=O (stereo not drawn) [CBK201253] | 61%
O=c1[nH]c(=O)n([C@H]2C[C@@H](O)[C@@H](CO)O2)cc1CO [CBK201332] | 9%
C#Cc1cn([C@@H]2O[C@H](CO)[C@H](O)C2O)c(=O)[nH]c1=O (stereo partly drawn) [CBK201179] | 20%
Cc1cn([C@H]2C[C@@H](O)[C@@H](CI)O2)c(=O)[nH]c1=O [CBK201197] | -1%

same assay, conditions: 6 h preincubation, K562 cells

% stabilization at retest (6h preincubation) | Structure (SMILES)
12% | C#CCOc1cn([C@H]2C[C@@H](O)[C@@H](CO)O2)c(=O)[nH]c1=O [CBK201278]
5% | COC1C(O)C(CO)OC1n1cc(F)c(=S)[nH]c1=O (stereo not drawn) [CBK201168]
7% | O=c1[nH]c(=O)n([C@H]2C[C@@H](O)[C@@H](CO)O2)cc1CO [CBK201332]

same assay, conditions: K562, 2 h, 50 μM compound, 2 h preincubation, 50 °C; 0% = DMSO, 100% = 100 nM raltitrexed; read-out: % stabilization in screen

% stabilization in screen at 50 µM | Structure (SMILES)
66% | Clc1ccc(C(Cn2ccnc2)OCc2csc3c(Cl)cccc23)c(Cl)c1 (stereo not drawn) [CBK200917G, Sertaconazole nitrate, reference compound]
66% | CN1CCN(c2c(F)cc3c(=O)c(C(=O)O)cn(CCF)c3c2F)CC1 [CBK201030, Fleroxacin, reference compound]
56% | CC(=O)OCC(=O)[C@@]12OC3(CCCC3)O[C@@H]1C[C@H]1[C@@H]3CCC4=CC(=O)C=C[C@]4(C)[C@@]3(F)[C@@H](O)C[C@@]12C [CBK200950, Amcinonid, reference compound]
17% | c1cnc(N2CCN(Cc3ccc4c(c3)OCO4)CC2)nc1 [CBK041124C, Piribedil, reference compound]

same assay, conditions: K562, 2 h; read-out: % stabilization in screen

% stabilization in screen at 50 µM | Structure (SMILES)
61% | Cc1ccc(-c2cc(C(F)(F)F)nn2-c2ccc(S(N)(=O)=O)cc2)cc1 [CBK041793, Celecoxib, reference compound]
23% | Cc1ccc2c(c1)c1c3n2CCNC3CCC1 (stereo not drawn) [CBK200931G, Pirlindole, reference compound]

Continued, compound first:

Structure (SMILES) | % stabilization in screen at 50 µM
CC(C)NCC(O)c1ccc(NS(C)(=O)=O)cc1 (stereo not drawn) [CBK012353C, Sotalol, reference compound] | 14%
Nc1ncn([C@@H]2O[C@H](CO)[C@@H](O)[C@H]2O)c(=O)n1 [CBK200768, 5-Azacytidine, reference compound] | 32%
Nc1ccn([C@@H]2O[C@H](CO)[C@@H](O)C2(F)F)c(=O)n1 [CBK200978, gemcitabine, reference compound] | 0%
COc1ccccc1N1CCN(CC(O)COc2cccc3ccccc23)CC1 (stereo not drawn) [CBK041301C, Naftopidil, reference compound] | 59%
C=CCOc1nc2c(=O)[nH]c(NC(=O)C(C)C)nc2n1[C@H]1C[C@H](O)[C@@H](CO)O1 [CBK201216, 8-allyloxy-N2-isobutyryl-2′-deoxyguanosine] | 30%
Nc1ncnc2c1nc(Br)n2[C@@H]1O[C@H](CO)[C@@H](O)[C@H]1O [CBK015742, 8-bromoadenosine] | 20%
Nc1nc(N)c2nc(-c3ccccc3)c(N)nc2n1 [CBK012158, Triamterene, reference compound] | 78%
